Columns and labels:
Assay type in all cases: in vivo
[1] = test system: wheat (Triticum aestivum); experiment: Test B preemergence, wheat; conditions: Preemergence, scale 0 to 100
In short: (§1)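 Greenhouse preemergence test: loam/sand soil, compound in surfactant-containing non-phytotoxic solvent, evaluated visually after 13–15 days on a 0–100 control scale.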

[2] = test system: velvetleaf (Abutilon theophrasti); experiment: Test A preemergence, velvetleaf; conditions: 0 to 100 scale (0 no effect, 100 complete control)
In short: (§2)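 Pre: directed soil spray after sowing in loam/sand. Post: seedlings at 1–2 leaf stage, 2–10 cm. Vehicle: non-phytotoxic solvent mix + surfactant. Greenhouse ~10 d; visual injury 0–100 vs untreated controls.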

[3] = test system: giant foxtail (Setaria faberii); experiment: Test B preemergence, giant foxtail; conditions: scale 0 to 100
From the text: (§3) Seeds of plant species selected from blackgrass (Alopecurus myosuroides), downy bromegrass (Bromus tectorum), green foxtail (Setaria viridis), Italian ryegrass (Lolium multiflorum), wheat (Triticum aestivum), wild oat (Avena fatua), catchweed bedstraw (Galium aparine), bermudagrass (Cynodon dactylon), Surinam grass (Brachiaria decumbens), cocklebur (Xanthium strumarium), corn (Zea mays), large crabgrass (Digitaria sanguinalis), woolly cupgrass (Eriochloa villosa), giant foxtail (Setaria faberii), goosegrass (Eleusine indica), johnsongrass (Sorghum halepense), kochia (Kochia scoparia), lambsquarters (Chenopodium album), morningglory (Ipomoea coccinea), nightshade (eastern black nightshade, Solanum ptycanthum), yellow nutsedge (Cyperus esculentus), pigweed (Amaranthus retroflexus), ragweed (common ragweed, Ambrosia elatior), soybean (Glycine max), sunflower (common oilseed sunflower, Helianthus annuus), Russian thistle (Salsola kali), and velvetleaf (Abutilon theophrasti) were planted into a blend of loam soil and sand and treated preemergence with test compounds formulated in a non-phytotoxic solvent mixture which included a surfactant. Treated plants and controls were maintained in a greenhouse for 13 to 15 days, after which time all species were compared to controls and visually evaluated. Plant response ratings, summarized in Table B, are based on a scale of 0 to 100 where 0 is no effect and 100 is complete control. A dash (-) response means no test result.

[4] = test system: pigweed (Amaranthus retroflexus); experiment: Test A preemergence, pigweed; conditions: 0 to 100 scale (0 no effect, 100 complete control)
In short: as §2

[5] = test system: cocklebur (Xanthium strumarium); experiment: Test B preemergence, cocklebur; conditions: scale 0 to 100
From the text: as §3

[6] = test system: umbrella sedge (Cyperus difformis); experiment: Test B flooded paddy test, umbrella sedge; conditions: Flood, scale 0 to 100
In short: (§4)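 Paddy-water application to 2-leaf plants in pots held under 3 cm of flooding; response is a 0–100 visual control rating against controls after 13 to 15 days, and a dash marks a missing result.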

[7] = test system: pigweed (Amaranthus retroflexus); experiment: Test B preemergence, pigweed; conditions: scale 0 to 100
From the text: as §3

rice (Oryza sativa) = experiment: Test B flooded paddy test, rice; conditions: Flood, scale 0 to 100
In short: as §4

corn (Zea mays) = experiment: Test A postemergence, corn; conditions: 0 to 100 scale (0 no effect, 100 complete control)
In short: as §2

[8] = test system: catchweed bedstraw (Galium aparine); experiment: Test B preemergence, catchweed bedstraw; conditions: scale 0 to 100
From the text: as §3

[9] = test system: wheat (Triticum aestivum); experiment: Test A postemergence, wheat; conditions: 0 to 100 scale (0 no effect, 100 complete control)
In short: as §2

[10] = test system: lambsquarters (Chenopodium album); experiment: Test B preemergence, lambsquarters; conditions: scale 0 to 100
From the text: as §3

[11] = test system: large crabgrass (Digitaria sanguinalis); experiment: Test A postemergence, large crabgrass; conditions: 0 to 100 scale (0 no effect, 100 complete control)
In short: as §2

[12] = test system: wheat (Triticum aestivum); experiment: Test A preemergence, wheat; conditions: 0 to 100 scale (0 no effect, 100 complete control)
In short: as §2

[13] = test system: nightshade (eastern black nightshade, Solanum ptycanthum); experiment: Test B preemergence, nightshade; conditions: scale 0 to 100
From the text: as §3

[14] = test system: sunflower (common oilseed sunflower, Helianthus annuus); experiment: Test B preemergence, sunflower; conditions: Preemergence, scale 0 to 100
In short: as §1

[15] = test system: blackgrass (Alopecurus myosuroides); experiment: Test B preemergence, blackgrass; conditions: scale 0 to 100
From the text: as §3

[16] = test system: goosegrass (Eleusine indica); experiment: Test B preemergence, goosegrass; conditions: scale 0 to 100
From the text: as §3

[17] = test system: barnyardgrass (Echinochloa crus-galli); experiment: Test B flooded paddy test, barnyardgrass; conditions: Flood
In short: as §4

[18] = 250 g ai/ha, scale 0 to 100 (0 no effect, 100 complete control)

SMILES: CC1(C)CC(S(=O)(=O)Cc2c(C(F)(F)C(F)(F)F)nc3n(c2=O)CCCC3)=NO1 [Compound 21]
- Plant response rating, Wheat ([1]; 16 g ai/ha): 0
- Plant response rating, Wheat ([1]; 31 g ai/ha): 0
- Plant response rating, Wheat ([1]; 62 g ai/ha): 0
- Plant response rating, Wheat ([1]; 125 g ai/ha): 0
- Plant response rating, Velvetleaf ([2]; 125 g ai/ha): 0
- Plant response rating, Velvetleaf ([2]; 500 g ai/ha): 60
- Plant response rating, Foxtail, Giant ([3]; 16 g ai/ha): 0
- Plant response rating, Foxtail, Giant ([3]; 31 g ai/ha): 60
- Plant response rating, Foxtail, Giant ([3]; 62 g ai/ha): 80
- Plant response rating, Foxtail, Giant ([3]; 125 g ai/ha): 85
- Plant response rating, Pigweed ([4]; 125 g ai/ha): 0
- Plant response rating, Pigweed ([4]; 500 g ai/ha): 100
- Plant response rating, Cocklebur ([5]; 16 g ai/ha): 0
- Plant response rating, Cocklebur ([5]; 31 g ai/ha): 0
- Plant response rating, Cocklebur ([5]; 62 g ai/ha): 0
- Plant response rating, Cocklebur ([5]; 125 g ai/ha): 0
- Plant response rating, Sedge, Umbrella ([6]; 62 g ai/ha): 0
- Plant response rating, Sedge, Umbrella ([6]; 250 g ai/ha): 0
- Plant response rating, Pigweed ([7]; 16 g ai/ha): 0
- Plant response rating, Pigweed ([7]; 31 g ai/ha): 0
- Plant response rating, Pigweed ([7]; 62 g ai/ha): 0
- Plant response rating, Pigweed ([7]; 125 g ai/ha): 98
- Plant response rating, Rice (rice (Oryza sativa); 62 g ai/ha): 0
- Plant response rating, Rice (rice (Oryza sativa); 250 g ai/ha): 0
- Plant response rating, Corn (corn (Zea mays); 125 g ai/ha): 0
- Plant response rating, Corn (corn (Zea mays); 500 g ai/ha): 0
- Plant response rating, Galium ([8]; 16 g ai/ha): 0
- Plant response rating, Galium ([8]; 31 g ai/ha): 0
- Plant response rating, Galium ([8]; 62 g ai/ha): 30
- Plant response rating, Galium ([8]; 125 g ai/ha): 50
- Plant response rating, Wheat ([9]; 125 g ai/ha): 0
- Plant response rating, Wheat ([9]; 500 g ai/ha): 20
- Plant response rating, Lambsquarters ([10]; 16 g ai/ha): 0
- Plant response rating, Lambsquarters ([10]; 31 g ai/ha): 0
- Plant response rating, Lambsquarters ([10]; 62 g ai/ha): 0
- Plant response rating, Lambsquarters ([10]; 125 g ai/ha): 98
- Plant response rating, Crabgrass, Large ([11]; 125 g ai/ha): 50
- Plant response rating, Crabgrass, Large ([11]; 500 g ai/ha): 80
- Plant response rating, Wheat ([12]; 125 g ai/ha): 0
- Plant response rating, Wheat ([12]; 500 g ai/ha): 40
- Plant response rating, Nightshade ([13]; 16 g ai/ha): 50
- Plant response rating, Nightshade ([13]; 31 g ai/ha): 50
- Plant response rating, Nightshade ([13]; 62 g ai/ha): 75
- Plant response rating, Nightshade ([13]; 125 g ai/ha): 90
- Plant response rating, Sunflower ([14]; 16 g ai/ha): 0
- Plant response rating, Sunflower ([14]; 31 g ai/ha): 0
- Plant response rating, Sunflower ([14]; 62 g ai/ha): 0
- Plant response rating, Sunflower ([14]; 125 g ai/ha): 10
- Plant response rating, Blackgrass ([15]; 16 g ai/ha): 40
- Plant response rating, Blackgrass ([15]; 31 g ai/ha): 40
- Plant response rating, Blackgrass ([15]; 62 g ai/ha): 50
- Plant response rating, Blackgrass ([15]; 125 g ai/ha): 98
- Plant response rating, Goosegrass ([16]; 16 g ai/ha): 50
- Plant response rating, Goosegrass ([16]; 31 g ai/ha): 98
- Plant response rating, Goosegrass ([16]; 62 g ai/ha): 100
- Plant response rating, Goosegrass ([16]; 125 g ai/ha): 100
- Plant response rating, Barnyardgrass ([17]; 62 g ai/ha, scale 0 to 100): 0
- Plant response rating, Barnyardgrass [17, 18]: 0

SMILES: CC1(C)CC(S(=O)(=O)Cc2c(C(F)(F)C(F)(F)F)nc3n(c2=O)CCC3)=NO1 [Compound 22]
- Plant response rating, Wheat ([1]; 16 g ai/ha): 0
- Plant response rating, Wheat ([1]; 31 g ai/ha): 0
- Plant response rating, Wheat ([1]; 62 g ai/ha): 0
- Plant response rating, Wheat ([1]; 125 g ai/ha): 10
- Plant response rating, Velvetleaf ([2]; 125 g ai/ha): 30
- Plant response rating, Velvetleaf ([2]; 500 g ai/ha): 90
- Plant response rating, Foxtail, Giant ([3]; 16 g ai/ha): 50
- Plant response rating, Foxtail, Giant ([3]; 31 g ai/ha): 50
- Plant response rating, Foxtail, Giant ([3]; 62 g ai/ha): 90
- Plant response rating, Foxtail, Giant ([3]; 125 g ai/ha): 100
- Plant response rating, Pigweed ([4]; 125 g ai/ha): 10
- Plant response rating, Pigweed ([4]; 500 g ai/ha): 90
- Plant response rating, Cocklebur ([5]; 16 g ai/ha): 0
- Plant response rating, Cocklebur ([5]; 31 g ai/ha): 0
- Plant response rating, Cocklebur ([5]; 62 g ai/ha): 0
- Plant response rating, Cocklebur ([5]; 125 g ai/ha): 0
- Plant response rating, Sedge, Umbrella ([6]; 62 g ai/ha): 0
- Plant response rating, Sedge, Umbrella ([6]; 250 g ai/ha): 0
- Plant response rating, Pigweed ([7]; 31 g ai/ha): 0
- Plant response rating, Pigweed ([7]; 125 g ai/ha): 100
- Plant response rating, Rice (rice (Oryza sativa); 62 g ai/ha): 0
- Plant response rating, Rice (rice (Oryza sativa); 250 g ai/ha): 10
- Plant response rating, Corn (corn (Zea mays); 125 g ai/ha): 0
- Plant response rating, Corn (corn (Zea mays); 500 g ai/ha): 0
- Plant response rating, Galium ([8]; 16 g ai/ha): 0
- Plant response rating, Galium ([8]; 31 g ai/ha): 0
- Plant response rating, Galium ([8]; 62 g ai/ha): 0
- Plant response rating, Galium ([8]; 125 g ai/ha): 0
- Plant response rating, Wheat ([9]; 125 g ai/ha): 20
- Plant response rating, Wheat ([9]; 500 g ai/ha): 50
- Plant response rating, Lambsquarters ([10]; 16 g ai/ha): 0
- Plant response rating, Lambsquarters ([10]; 31 g ai/ha): 0
- Plant response rating, Lambsquarters ([10]; 62 g ai/ha): 70
- Plant response rating, Lambsquarters ([10]; 125 g ai/ha): 100
- Plant response rating, Crabgrass, Large ([11]; 125 g ai/ha): 70
- Plant response rating, Crabgrass, Large ([11]; 500 g ai/ha): 80
- Plant response rating, Wheat ([12]; 125 g ai/ha): 0
- Plant response rating, Wheat ([12]; 500 g ai/ha): 50
- Plant response rating, Nightshade ([13]; 16 g ai/ha): 0
- Plant response rating, Nightshade ([13]; 31 g ai/ha): 60
- Plant response rating, Nightshade ([13]; 62 g ai/ha): 90
- Plant response rating, Nightshade ([13]; 125 g ai/ha): 100
- Plant response rating, Sunflower ([14]; 16 g ai/ha): 0
- Plant response rating, Sunflower ([14]; 31 g ai/ha): 0
- Plant response rating, Sunflower ([14]; 62 g ai/ha): 0
- Plant response rating, Sunflower ([14]; 125 g ai/ha): 50
- Plant response rating, Blackgrass ([15]; 16 g ai/ha): 0
- Plant response rating, Blackgrass ([15]; 31 g ai/ha): 40
- Plant response rating, Blackgrass ([15]; 62 g ai/ha): 40
- Plant response rating, Blackgrass ([15]; 125 g ai/ha): 98
- Plant response rating, Goosegrass ([16]; 16 g ai/ha): 30
- Plant response rating, Goosegrass ([16]; 31 g ai/ha): 80
- Plant response rating, Goosegrass ([16]; 62 g ai/ha): 100
- Plant response rating, Goosegrass ([16]; 125 g ai/ha): 100
- Plant response rating, Barnyardgrass ([17]; 62 g ai/ha, scale 0 to 100): 0
- Plant response rating, Barnyardgrass [17, 18]: 0
